From ChEMBL document CHEMBL2046275, “Cellular quantitative structure-activity relationship (Cell-QSAR): conceptual dissection of receptor binding and intracellular disposition in antifilarial activities of Selwood antimycins” (J Med Chem, 2012)

The molecules below were run on Acanthocheilonema viteae (assay: Antifilarial activity against Dipetalonema viteae after 120 hrs). Conditions: read-out: log(1/EC50) (converted).
Format: functional, organism-based

EC50 [µM]	Structure (SMILES)
> 10	O=C(Nc1ccc(C(O)c2ccccc2)cc1)c1cc([N+](=O)[O-])ccc1O (stereo not drawn)
> 10	CCCCCCNC(=O)c1cccc(NC=O)c1O
0.028	O=C(Nc1ccc(Nc2ccc(SC(F)(F)F)cc2)c(Cl)c1)c1cc([N+](=O)[O-])ccc1O
